This passage reports IC50 results from the Kinase Knowledgebase extract (Sharma et al. 2016).

The target of one assay is PIK3CD (Human) (UniProt O00329). The experiment in a line: Assessment of PIK3CD Kinase Activity.
The target in another assay is PIK3CG (human) (UniProt P48736). Briefly: Assessment of PIK3CG Kinase Activity.
Another assay has as its target PIK3CA (human) (UniProt P42336). The experiment in a line: Assessment of PIK3CA Kinase Activity.
In the next assay the target is PIK3CB (Human) (UniProt P42338). The experiment in a line: Assessment of PIK3CB Kinase Activity.

Each structure is given as a SMILES string.

Sequence of PIK3CB (Human) (P42338 whole entry, looked up): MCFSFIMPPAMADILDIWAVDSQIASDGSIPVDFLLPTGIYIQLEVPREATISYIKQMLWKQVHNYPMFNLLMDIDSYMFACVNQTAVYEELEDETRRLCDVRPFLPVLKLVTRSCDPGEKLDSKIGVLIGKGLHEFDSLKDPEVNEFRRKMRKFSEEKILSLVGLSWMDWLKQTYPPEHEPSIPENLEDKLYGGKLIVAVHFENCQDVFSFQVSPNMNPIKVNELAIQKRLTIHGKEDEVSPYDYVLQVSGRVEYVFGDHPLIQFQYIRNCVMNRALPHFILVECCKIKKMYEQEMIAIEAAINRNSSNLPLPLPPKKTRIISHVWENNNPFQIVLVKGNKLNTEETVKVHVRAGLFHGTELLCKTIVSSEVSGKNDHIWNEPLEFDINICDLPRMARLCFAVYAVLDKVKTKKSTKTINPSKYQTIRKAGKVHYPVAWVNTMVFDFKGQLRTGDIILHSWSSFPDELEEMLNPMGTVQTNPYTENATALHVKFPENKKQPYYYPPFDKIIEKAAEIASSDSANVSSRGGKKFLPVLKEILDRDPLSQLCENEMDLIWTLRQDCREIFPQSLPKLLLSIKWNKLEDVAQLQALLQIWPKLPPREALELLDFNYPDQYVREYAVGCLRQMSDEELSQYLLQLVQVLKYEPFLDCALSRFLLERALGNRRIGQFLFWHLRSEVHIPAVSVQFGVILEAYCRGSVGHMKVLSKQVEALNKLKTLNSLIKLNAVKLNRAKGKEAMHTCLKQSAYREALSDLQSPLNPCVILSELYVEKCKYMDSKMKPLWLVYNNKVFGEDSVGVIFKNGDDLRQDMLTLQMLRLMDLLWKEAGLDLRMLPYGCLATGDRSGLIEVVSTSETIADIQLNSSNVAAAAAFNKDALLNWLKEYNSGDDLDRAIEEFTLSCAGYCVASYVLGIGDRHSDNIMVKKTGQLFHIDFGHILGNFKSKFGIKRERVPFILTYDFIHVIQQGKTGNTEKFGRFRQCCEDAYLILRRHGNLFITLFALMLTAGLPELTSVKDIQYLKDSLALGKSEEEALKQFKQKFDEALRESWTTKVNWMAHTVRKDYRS
Sequence of PIK3CA (human) (P42336 whole entry, looked up): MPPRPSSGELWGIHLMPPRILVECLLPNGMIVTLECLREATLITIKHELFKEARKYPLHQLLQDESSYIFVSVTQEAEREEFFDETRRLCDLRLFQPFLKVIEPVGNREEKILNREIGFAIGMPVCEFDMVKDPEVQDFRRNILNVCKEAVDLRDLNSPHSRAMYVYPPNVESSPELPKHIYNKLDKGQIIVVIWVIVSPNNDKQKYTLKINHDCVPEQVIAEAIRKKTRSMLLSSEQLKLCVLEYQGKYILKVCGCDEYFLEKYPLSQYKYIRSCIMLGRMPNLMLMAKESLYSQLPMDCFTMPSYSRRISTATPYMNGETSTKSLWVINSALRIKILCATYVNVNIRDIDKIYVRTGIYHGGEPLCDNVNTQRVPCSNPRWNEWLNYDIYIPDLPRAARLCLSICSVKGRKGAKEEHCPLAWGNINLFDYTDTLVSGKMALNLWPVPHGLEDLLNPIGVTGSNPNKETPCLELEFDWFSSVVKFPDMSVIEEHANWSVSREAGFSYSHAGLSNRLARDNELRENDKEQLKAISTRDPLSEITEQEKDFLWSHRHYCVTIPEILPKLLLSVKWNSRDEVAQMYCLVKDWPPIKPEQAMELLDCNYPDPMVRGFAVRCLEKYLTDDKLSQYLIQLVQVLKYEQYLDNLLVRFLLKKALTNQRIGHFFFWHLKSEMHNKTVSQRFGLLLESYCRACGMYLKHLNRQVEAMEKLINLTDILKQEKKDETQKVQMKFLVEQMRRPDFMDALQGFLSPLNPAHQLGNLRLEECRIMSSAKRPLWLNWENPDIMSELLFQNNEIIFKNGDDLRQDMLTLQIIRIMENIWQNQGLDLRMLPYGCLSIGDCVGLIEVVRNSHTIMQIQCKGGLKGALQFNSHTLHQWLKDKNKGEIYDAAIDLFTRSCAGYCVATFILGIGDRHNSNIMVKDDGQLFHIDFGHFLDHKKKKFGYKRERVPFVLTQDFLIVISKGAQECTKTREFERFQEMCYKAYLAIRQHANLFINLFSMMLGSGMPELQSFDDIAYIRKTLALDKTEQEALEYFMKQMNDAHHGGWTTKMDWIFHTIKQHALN
Sequence of PIK3CG (human) (P48736 whole entry, looked up): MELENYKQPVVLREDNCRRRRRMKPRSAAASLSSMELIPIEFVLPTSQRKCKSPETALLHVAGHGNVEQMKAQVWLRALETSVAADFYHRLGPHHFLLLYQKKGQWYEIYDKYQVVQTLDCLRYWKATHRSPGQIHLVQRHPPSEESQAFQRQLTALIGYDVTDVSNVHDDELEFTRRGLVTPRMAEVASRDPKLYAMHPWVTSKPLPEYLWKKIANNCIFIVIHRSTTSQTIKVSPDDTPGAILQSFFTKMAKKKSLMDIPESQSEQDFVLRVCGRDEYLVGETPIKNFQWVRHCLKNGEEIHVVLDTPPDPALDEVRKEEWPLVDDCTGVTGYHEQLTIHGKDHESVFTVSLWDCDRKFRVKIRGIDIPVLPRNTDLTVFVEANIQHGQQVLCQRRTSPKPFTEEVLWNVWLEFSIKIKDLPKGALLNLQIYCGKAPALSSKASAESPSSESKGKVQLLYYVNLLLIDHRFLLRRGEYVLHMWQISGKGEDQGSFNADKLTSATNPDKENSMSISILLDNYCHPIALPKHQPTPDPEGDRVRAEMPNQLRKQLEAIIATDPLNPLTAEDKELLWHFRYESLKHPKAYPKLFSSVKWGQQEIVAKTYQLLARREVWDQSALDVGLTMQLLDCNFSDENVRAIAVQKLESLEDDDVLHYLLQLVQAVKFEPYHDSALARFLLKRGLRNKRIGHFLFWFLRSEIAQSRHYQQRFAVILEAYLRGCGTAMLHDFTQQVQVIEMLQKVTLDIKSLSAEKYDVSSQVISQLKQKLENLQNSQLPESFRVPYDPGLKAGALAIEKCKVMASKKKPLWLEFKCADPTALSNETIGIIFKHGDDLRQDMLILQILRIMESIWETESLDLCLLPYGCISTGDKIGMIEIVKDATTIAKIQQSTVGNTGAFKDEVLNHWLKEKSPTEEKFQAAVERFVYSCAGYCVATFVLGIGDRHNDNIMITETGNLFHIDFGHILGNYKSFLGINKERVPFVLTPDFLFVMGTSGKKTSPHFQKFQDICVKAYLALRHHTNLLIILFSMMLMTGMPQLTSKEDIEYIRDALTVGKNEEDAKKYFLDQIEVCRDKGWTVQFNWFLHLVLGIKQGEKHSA
Sequence of PIK3CD (Human) (O00329 whole entry, looked up): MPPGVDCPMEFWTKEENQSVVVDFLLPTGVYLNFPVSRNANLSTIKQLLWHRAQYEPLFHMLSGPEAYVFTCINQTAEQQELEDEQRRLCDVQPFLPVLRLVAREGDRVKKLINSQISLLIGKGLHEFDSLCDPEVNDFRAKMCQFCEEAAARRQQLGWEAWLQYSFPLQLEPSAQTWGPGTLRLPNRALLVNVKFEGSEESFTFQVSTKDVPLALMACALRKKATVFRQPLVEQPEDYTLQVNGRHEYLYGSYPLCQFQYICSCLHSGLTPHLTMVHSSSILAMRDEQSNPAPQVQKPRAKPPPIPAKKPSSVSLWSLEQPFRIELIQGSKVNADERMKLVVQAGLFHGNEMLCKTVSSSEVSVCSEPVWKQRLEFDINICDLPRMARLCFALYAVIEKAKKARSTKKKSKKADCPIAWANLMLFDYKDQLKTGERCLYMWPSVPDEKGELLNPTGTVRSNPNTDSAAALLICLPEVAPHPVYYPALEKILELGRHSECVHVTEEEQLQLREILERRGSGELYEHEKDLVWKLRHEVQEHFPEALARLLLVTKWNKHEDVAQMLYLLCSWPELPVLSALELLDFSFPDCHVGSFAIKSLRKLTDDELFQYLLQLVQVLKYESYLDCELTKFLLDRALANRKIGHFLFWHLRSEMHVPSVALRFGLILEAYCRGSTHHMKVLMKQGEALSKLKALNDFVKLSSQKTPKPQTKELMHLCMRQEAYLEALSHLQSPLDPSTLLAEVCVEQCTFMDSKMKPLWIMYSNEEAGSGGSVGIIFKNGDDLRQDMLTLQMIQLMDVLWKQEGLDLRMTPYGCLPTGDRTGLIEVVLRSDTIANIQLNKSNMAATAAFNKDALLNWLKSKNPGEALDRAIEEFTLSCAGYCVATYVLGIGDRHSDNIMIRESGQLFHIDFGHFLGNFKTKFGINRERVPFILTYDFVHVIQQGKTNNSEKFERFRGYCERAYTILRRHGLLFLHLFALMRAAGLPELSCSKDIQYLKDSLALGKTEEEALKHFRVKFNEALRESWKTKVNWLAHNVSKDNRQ

In the case of `Nc1nc2ccc(-c3nn(Cc4nc5ccccc5nc4N4CCCC4)c4ncnc(N)c34)cc2s1`, the IC50 at PIK3CD (Human) is ≤ 100 nM; against PIK3CG (human), ≤ 100 nM; at PIK3CA (human), 100 to 1000 nM.
In the case of `Nc1ncnc2c1c(-c1ccc3cn[nH]c3c1)nn2Cc1cc2ccccc2nc1N1CCCC1`, the IC50 at PIK3CD (Human) is ≤ 100 nM.
`CC(c1cc2ccccc2nc1-c1ccccc1)n1nc(-c2cc(O)cc(F)c2)c2c(N)ncnc21` (configuration not stated): the IC50 against PIK3CD (Human) was ≤ 100 nM; against PIK3CB (Human), 100 to 1000 nM; on PIK3CG (human), ≤ 100 nM; at PIK3CA (human) it was 100 to 1000 nM.
On to `CC(=O)Nc1nc2ccc(-c3nn(Cc4nc5ccccc5nc4N4CCCC4)c4ncnc(N)c34)cc2s1`, for which the IC50 against PIK3CD (Human), on PIK3CG (human) and against PIK3CA (human) was ≤ 100 nM each time.
As for `CN1CCN(c2nc3ccccc3nc2Cn2nc(-c3cc(O)cc(F)c3)c3c(N)ncnc32)CC1`, the figures for the IC50 at PIK3CD (Human) and on PIK3CB (Human) were ≤ 100 nM and 100 to 1000 nM, respectively.
Turning to `CCC(c1cc2ccccc2nc1N1CCCC1)n1nc(C#C[C@@H](C)O)c2c(N)ncnc21` (some centres not stated), the half-inhibitory concentration (IC50) on PIK3CD (Human) is ≤ 100 nM.
On the same count and under the same terms, then `Nc1ncc(-c2nn(Cc3cc4ccccc4nc3-c3ccccc3)c3ncnc(N)c23)cn1`, with 100 to 1000 nM.
Still for that read-out and setting: then `Nc1nc2ccc(-c3nn(Cc4cc5ccccc5nc4-c4ccccc4C(F)(F)F)c4ncnc(N)c34)cc2[nH]1`, with ≤ 100 nM.
On to `Cc1nccn1-c1nc2ccccc2cc1Cn1nc(-c2ccc3nc(N)sc3c2)c2c(N)ncnc21`, for which the values for the IC50 against PIK3CD (Human) and against PIK3CA (human) were ≤ 100 nM and 100 to 1000 nM, respectively.
For the molecule `CC(=O)Nc1nc2ccc(-c3nn(Cc4nc5ccccc5nc4N4CCN(C)CC4)c4ncnc(N)c34)cc2s1`, the IC50 at PIK3CD (Human) was ≤ 100 nM; against PIK3CB (Human), ≤ 100 nM; at PIK3CG (human) it was 100 to 1000 nM; against PIK3CA (human) it was 100 to 1000 nM.
On to `Cc1ccccc1-c1nc2ccccc2cc1Cn1nc(-c2ccc3nc(N)sc3c2)c2c(N)ncnc21`, for which the IC50 at PIK3CD (Human) and on PIK3CG (human) was ≤ 100 nM in each case.
For `CN1CCN(c2nc3ccccc3cc2Cn2nc(-c3ccc4nc(N)sc4c3)c3c(N)ncnc32)CC1`, the IC50 against PIK3CD (Human), against PIK3CB (Human), on PIK3CG (human) and against PIK3CA (human) was ≤ 100 nM throughout.
Regarding `Nc1ncnc2c1c(C=C1SC(=O)NC1=O)nn2Cc1cc2ccccc2nc1-c1ccccc1F`, the IC50 against PIK3CD (Human) and against PIK3CG (human) was ≤ 100 nM in each case.
As to `Nc1ncnc2c1c(-c1cccc(O)c1)nn2Cc1cc2ccccc2nc1-c1cccnc1`, the IC50 at PIK3CD (Human) was ≤ 100 nM.
On PIK3CD (Human), `NC(=O)C=Cc1nn(Cc2cc3ccccc3nc2-c2ccccc2F)c2ncnc(N)c12` came in with an IC50 of 100 to 1000 nM.

As usually defined, the IC50 is the midpoint of a concentration-inhibition curve.
